Like-named read-outs stand apart in the source and are kept apart here.
How the values were obtained:
[1] = tested on: mixture of Pseudomonas aeruginosa ATCC 10145 and Staphylococcus aureus ATCC 6538; assay: Kill assay (MBC, synergy index); format: cell-based; settings: 37° C., 2 hours
Experimental: This assay is used as a preliminary evaluation of synergy between the actives. The procedure is as follows. A mineral salts solution (0.2203 g of CaCl2, 0.1847 g of MgSO4, and 0.2033 g of NaHCO3 in 1 L water, approximately pH 8) is inoculated with equal amounts (about 10^7 CFU/ml) of a mixture of Pseudomonas aeruginosa ATCC 10145 and Staphylococcus aureus ATCC 6538. Aliquots of the cell suspension are then treated with 2,2-dibromomalonamide (“DBMAL”), […], and their combinations at various concentration levels. […] The MBC values are then used to calculate a synergy index (SI) values.
Summaries of the kill assay results are presented in the individual Examples. In each table, MBC values for each biocide and the blends tested are presented Likewise, the Synergy Index (“SI”) values for the combinations are listed. SI is calculated with the following equation: Synergy Index=Ca/CA+Mb/CB […]

[2] = tested on: mixture of Pseudomonas aeruginosa, Klebsiella pneumoniae, Staphylococcus aureus, and Bacillus subtilis; assay: Growth inhibition assay; format: cell-based; settings: 24 h; for inhibition at 0.19 µg/mL / inhibition at 0.39 µg/mL / inhibition at 0.78 µg/mL / inhibition at 1.56 µg/mL / inhibition at 3.13 µg/mL / inhibition at 6.25 µg/mL / inhibition at 12.5 µg/mL / inhibition at 25 µg/mL: read-out: % Inhibition of growth by DBMAL
From the text: The growth inhibition assay used in the Examples measures inhibition of growth (or lack thereof) of a microbial consortium. Inhibition of growth can be the result of killing of the cells (so no growth occurs), killing of a significant portion of the populations of cells so that regrowth requires a prolonged time, or inhibition of growth without killing (stasis). Regardless of the mechanism of action, the impact of a biocide (or combination of biocides) can be measured over time on the basis of an increase in the size of the community.
The assay measures the efficacy of one or more biocides at preventing growth of a consortium of bacteria in a dilute mineral salts medium. The medium contains (in mg/l) the following components: FeCl3.6H2O (1); CaCl2.2H2O (10); MgSO4.7H2O (22.5); (NH4)2SO4 (40); KH2PO4 (10); K2HPO4 (25.5); Yeast Extract (10); and glucose (100). After all components are added to deionized water, the pH of the medium is adjusted to 7.5. Following filter sterilization, aliquots are dispensed in 100 ul quantities to sterile microtiter plate wells. Dilutions of DBMAL and/or “Biocide B” are then added to the microtiter plate. After preparing the combinations of actives as illustrated below, each well is inoculated with 100 μl of a cell suspension containing ca. 1×10^6 cells per milliliter of a mixture of Pseudomonas aeruginosa, Klebsiella pneumoniae, Staphylococcus aureus, and Bacillus subtilis. The final total volume of medium in each well is 300 μl. […] The resulting matrix allows testing of eight concentrations of each active and 64 combinations of actives in the ratios (of actives).
Controls (not shown) contain the medium with no biocide added. After preparing the combinations of actives as illustrated above, each well is inoculated with 100 μl of a cell suspension containing ca. 1×10^6 cells per milliliter of a mixture of Pseudomonas aeruginosa, Klebsiella pneumoniae, Staphylococcus aureus, and Bacillus subtilis. The final total volume of medium in each well is 300 μl.
Immediately after the microtiter plates are prepared, the optical density (OD) readings for each well is measured at 580 nm and the plates are then incubated at 37° C. for 24 hr. After the incubation period, the plates are gently agitated before OD580 values are collected. The OD580 values at T0 are subtracted from T24 values to determine the total amount of growth (or lack thereof) that occurs. These values are used to calculate the percent inhibition of growth caused by the presence of each biocide and each of the 64 combinations. A 90% inhibition of growth is used as a threshold for calculating synergy index (SI) values with the following equation: Synergy Index=MDBMAL/CDBMAL+MB/CB
where • CDBMAL: Concentration of DBMAL required to inhibit ˜90% of bacterial growth when used alone • CB: Concentration of biocide (B) required to inhibit ˜90% of bacterial growth when used alone. • MDBMAL: Concentration of DBMAL required to inhibit ˜90% of bacterial growth when used in combination with biocide (B). • MB: Concentration of biocide (B) required to inhibit ˜90% of bacterial growth when used in combination with DBMAL The SI values are interpreted as follows: • SI<1: Synergistic combination • SI=1: Additive combination • SI>1: Antagonistic combination

## NC(=O)C(Br)(Br)C(N)=O [DBMAL, 2,2-dibromomalonamide]
[1]
  MBC (minimum biocide concentration needed to completely kill), biocide alone: 66.7 µg/mL
[2]; Table 3, DBMAL alone 0.19 mg/l
  inhibition at 0.19 µg/mL: 0%
[2]; Table 3, DBMAL alone 0.39 mg/l
  inhibition at 0.39 µg/mL: 0%
[2]; Table 3, DBMAL alone 0.78 mg/l
  inhibition at 0.78 µg/mL: 34%
[2]; Table 3, DBMAL alone 1.56 mg/l
  inhibition at 1.56 µg/mL: 11%
[2]; Table 3, DBMAL alone 3.13 mg/l
  inhibition at 3.13 µg/mL: 38%
[2]; Table 3, DBMAL alone 6.25 mg/l
  inhibition at 6.25 µg/mL: 50%
[2]; Table 3, DBMAL alone 12.5 mg/l
  inhibition at 12.5 µg/mL: 107%
[2]; Table 3, DBMAL alone 25.0 mg/l
  inhibition at 25 µg/mL: 105%
[2]; Table 6, DBMAL alone 0.19 mg/l
  inhibition at 0.19 µg/mL: 0%
[2]; Table 6, DBMAL alone 0.39 mg/l
  inhibition at 0.39 µg/mL: 0%
[2]; Table 6, DBMAL alone 0.78 mg/l
  inhibition at 0.78 µg/mL: 18%
[2]; Table 6, DBMAL alone 1.56 mg/l
  inhibition at 1.56 µg/mL: 34%
[2]; Table 6, DBMAL alone 3.13 mg/l
  inhibition at 3.13 µg/mL: 50%
[2]; Table 6, DBMAL alone 6.25 mg/l
  inhibition at 6.25 µg/mL: 44%
[2]; Table 6, DBMAL alone 12.5 mg/l
  inhibition at 12.5 µg/mL: 97%
[2]; Table 6, DBMAL alone 25 mg/l
  inhibition at 25 µg/mL: 100%
[2]; Table 8, DBMAL alone 0.19 mg/l
  inhibition at 0.19 µg/mL: 0%
[2]; Table 8, DBMAL alone 0.39 mg/l
  inhibition at 0.39 µg/mL: 2%
[2]; Table 8, DBMAL alone 0.78 mg/l
  inhibition at 0.78 µg/mL: 0%
[2]; Table 8, DBMAL alone 1.56 mg/l
  inhibition at 1.56 µg/mL: 0%
[2]; Table 8, DBMAL alone 3.13 mg/l
  inhibition at 3.13 µg/mL: 0%
[2]; Table 8, DBMAL alone 6.25 mg/l
  inhibition at 6.25 µg/mL: 0%
[2]; Table 8, DBMAL alone 12.5 mg/l
  inhibition at 12.5 µg/mL: 100%
[2]; Table 8, DBMAL alone 25.0 mg/l
  inhibition at 25 µg/mL: 100%
[2]; Table 10, DBMAL alone 0.19 mg/l
  inhibition at 0.19 µg/mL: 7%
[2]; Table 10, DBMAL alone 0.39 mg/l
  inhibition at 0.39 µg/mL: 0%
[2]; Table 10, DBMAL alone 0.78 mg/l
  inhibition at 0.78 µg/mL: 0%
[2]; Table 10, DBMAL alone 1.56 mg/l
  inhibition at 1.56 µg/mL: 0%
[2]; Table 10, DBMAL alone 3.13 mg/l
  inhibition at 3.13 µg/mL: 0%
[2]; Table 10, DBMAL alone 6.25 mg/l
  inhibition at 6.25 µg/mL: 52%
[2]; Table 10, DBMAL alone 12.5 mg/l
  inhibition at 12.5 µg/mL: 99%
[2]; Table 10, DBMAL alone 25.0 mg/l
  inhibition at 25 µg/mL: 100%
[2]; Table 12 (4,4-D), DBMAL alone 0.19 mg/l
  inhibition at 0.19 µg/mL: 0%
[2]; Table 12 (4,4-D), DBMAL alone 0.39 mg/l
  inhibition at 0.39 µg/mL: 6%
[2]; Table 12 (4,4-D), DBMAL alone 0.78 mg/l
  inhibition at 0.78 µg/mL: 0%
[2]; Table 12 (4,4-D), DBMAL alone 1.56 mg/l
  inhibition at 1.56 µg/mL: 2%
[2]; Table 12 (4,4-D), DBMAL alone 3.13 mg/l
  inhibition at 3.13 µg/mL: 0%
[2]; Table 12 (4,4-D), DBMAL alone 6.25 mg/l
  inhibition at 6.25 µg/mL: 0%
[2]; Table 12 (4,4-D), DBMAL alone 12.5 mg/l
  inhibition at 12.5 µg/mL: 100%
[2]; Table 12 (4,4-D), DBMAL alone 25.0 mg/l
  inhibition at 25 µg/mL: 100%
[2]; Table 12 (TEHT), DBMAL alone 0.19 mg/l
  inhibition at 0.19 µg/mL: 13%
[2]; Table 12 (TEHT), DBMAL alone 0.39 mg/l
  inhibition at 0.39 µg/mL: 8%
[2]; Table 12 (TEHT), DBMAL alone 0.78 mg/l
  inhibition at 0.78 µg/mL: 30%
[2]; Table 12 (TEHT), DBMAL alone 1.56 mg/l
  inhibition at 1.56 µg/mL: 32%
[2]; Table 12 (TEHT), DBMAL alone 3.13 mg/l
  inhibition at 3.13 µg/mL: 45%
[2]; Table 12 (TEHT), DBMAL alone 6.25 mg/l
  inhibition at 6.25 µg/mL: 32%
[2]; Table 12 (TEHT), DBMAL alone 12.5 mg/l
  inhibition at 12.5 µg/mL: 97%
[2]; Table 12 (TEHT), DBMAL alone 25.0 mg/l
  inhibition at 25 µg/mL: 96%
[2]; biocide alone
  concentration needed to provide at least 90% inhibition of growth: 12.5 mg/L
